According to US10196436B2, “Inhibitors of the fibroblast growth factor receptor” (BLUEPRINT MEDICINES CORPORATION, priority 2012, dated 2019):

Legend:
wild type FGFR-4 = wild type FGFR-4 (Homo sapiens (Human), UniProt P22455); assay: FGFR-4 wild type assay at Km (Caliper electrophoretic mobility shift); format: biochemical; conditions: for IC50: 400 uM ATP, 90 minutes, 25 C, read-out: FGFR4 IC50; for Ratio FGFR1/FGFR4: [IC50 for FGFR1]/[IC50 for FGFR4]
Description: (§1) In order to assess the activity of chemical compounds against the relevant kinase of interest, the Caliper LifeSciences electrophoretic mobility shift technology platform is utilized. Fluorescently labeled substrate peptide is incubated in the presence dosed levels of compounds, a set concentration of kinase and of ATP, so that a reflective proportion of the peptide is phosphorylated. At the end of the reaction, the mix of phosphorylated (product) and non-phosphorylated (substrate) peptides are passed through the microfluidic system of the Caliper LabChip® EZ Reader II, under an applied potential difference. The presence of the phosphate group on the product peptide provides a difference in mass and charge between the product peptide and the substrate peptide, resulting in a separation of the substrate and product pools in the sample. As the pools pass the LEDS within the instrument, these pools are detected and resolved as separate peaks. The ratio between these peaks therefore reflects the activity of the chemical matter at that concentration in that well, under those conditions.
(§2) The reaction was stopped by the addition of 70 ul of Stop buffer (100 mM HEPES pH 7.5, 0.015% Brij 35, 35 mM EDTA and 0.2% of Coating Reagent 3 (Caliper Lifesciences)). The plate was then read on a Caliper LabChip® EZ Reader II (protocol settings: −1.9 psi, upstream voltage −700, downstream voltage −3000, post sample sip 35 s).

wild type FGFR-1 = wild type FGFR-1 (Homo sapiens (Human), UniProt P11362); assay: FGFR-1 wild type assay at Km (Caliper electrophoretic mobility shift); format: biochemical; conditions: 400 uM ATP, 90 minutes, 25 C; read-out: FGFR1 IC50
wild type FGFR-1, sequence (P11362 22-822): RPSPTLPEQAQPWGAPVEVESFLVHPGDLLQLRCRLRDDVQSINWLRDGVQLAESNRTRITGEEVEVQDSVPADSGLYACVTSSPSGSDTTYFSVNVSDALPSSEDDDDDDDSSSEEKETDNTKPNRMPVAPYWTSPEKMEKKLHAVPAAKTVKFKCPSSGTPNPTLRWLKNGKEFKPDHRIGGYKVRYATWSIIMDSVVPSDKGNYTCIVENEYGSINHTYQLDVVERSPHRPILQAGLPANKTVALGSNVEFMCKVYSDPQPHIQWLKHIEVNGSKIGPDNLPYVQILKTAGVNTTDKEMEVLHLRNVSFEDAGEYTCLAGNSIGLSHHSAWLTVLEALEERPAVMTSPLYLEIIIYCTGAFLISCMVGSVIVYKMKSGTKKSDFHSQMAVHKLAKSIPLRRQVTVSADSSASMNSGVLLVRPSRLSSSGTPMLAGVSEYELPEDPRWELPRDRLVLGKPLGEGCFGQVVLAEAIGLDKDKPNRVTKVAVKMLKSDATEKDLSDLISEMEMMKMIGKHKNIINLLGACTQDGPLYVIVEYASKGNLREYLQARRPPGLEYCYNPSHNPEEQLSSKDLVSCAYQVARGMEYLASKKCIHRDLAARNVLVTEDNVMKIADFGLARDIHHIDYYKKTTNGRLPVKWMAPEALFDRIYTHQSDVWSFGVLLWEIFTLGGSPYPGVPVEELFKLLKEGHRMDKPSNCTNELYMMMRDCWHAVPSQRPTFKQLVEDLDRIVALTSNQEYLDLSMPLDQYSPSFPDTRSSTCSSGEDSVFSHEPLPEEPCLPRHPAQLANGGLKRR
Description: as §1
as §2, with “EZReader 2” for “LabChip® EZ Reader II”

wild type FGFR-4, sequence (P22455 22-802): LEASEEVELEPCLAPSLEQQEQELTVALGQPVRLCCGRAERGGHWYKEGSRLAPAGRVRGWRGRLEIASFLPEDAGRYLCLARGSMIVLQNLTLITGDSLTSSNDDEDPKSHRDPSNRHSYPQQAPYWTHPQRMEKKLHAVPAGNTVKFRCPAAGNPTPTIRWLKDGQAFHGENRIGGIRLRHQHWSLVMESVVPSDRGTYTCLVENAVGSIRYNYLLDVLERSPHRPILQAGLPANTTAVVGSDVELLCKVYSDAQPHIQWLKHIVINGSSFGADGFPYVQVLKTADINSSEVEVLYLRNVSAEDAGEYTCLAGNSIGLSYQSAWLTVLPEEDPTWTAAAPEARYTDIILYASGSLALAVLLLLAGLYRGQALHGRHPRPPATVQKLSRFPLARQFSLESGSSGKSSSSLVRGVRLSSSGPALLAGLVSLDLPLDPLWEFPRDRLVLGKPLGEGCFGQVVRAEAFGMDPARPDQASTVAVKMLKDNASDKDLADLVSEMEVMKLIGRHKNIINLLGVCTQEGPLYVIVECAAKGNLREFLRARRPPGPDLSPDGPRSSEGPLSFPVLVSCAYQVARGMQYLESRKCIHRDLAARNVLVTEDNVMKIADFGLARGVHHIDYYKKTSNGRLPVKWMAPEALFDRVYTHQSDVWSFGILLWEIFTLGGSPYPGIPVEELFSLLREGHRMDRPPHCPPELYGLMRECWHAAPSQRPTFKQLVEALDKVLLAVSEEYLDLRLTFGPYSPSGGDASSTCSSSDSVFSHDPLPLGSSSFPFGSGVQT

Compound | IC50 (wild type FGFR-4) | Ratio FGFR1/FGFR4 (wild type FGFR-4) | IC50 (wild type FGFR-1)
C=CC(=O)N(C)c1ncc2cc(-c3cc(OC)cc(OC)c3)ccc2n1 [COMPOUND 1] | 100 to 1000 nM | C (the ratio is ≥100 and <200) | > 1000 nM
C=CC(=O)N(C)c1ncc2cc(-c3c(Cl)cccc3Cl)ccc2n1 [COMPOUND 2] | – | D (the ratio is ≥50 and <100) | > 1000 nM
C=CC(=O)N(C)c1ncc2c(n1)N(C)C(=O)N(c1cc(OC)cc(OC)c1)C2 [COMPOUND 5] | – | A (the ratio is >500) | > 1000 nM
C=CC(=O)Nc1cccc(C)c1Nc1ncc(C#Cc2cc(OC)cc(OC)c2)cn1 [COMPOUND 6, N-(2-((5-((3,5-dimethoxyphenyl)ethynyl)pyrimidin-2-yl)amino)-3-methylphenyl) acrylamide] | – | – | > 1000 nM
C=CC(=O)N(C)c1ncc2cc(-c3c(Cl)c(OC)cc(OC)c3Cl)ccc2n1 [COMPOUND 7] | < 10 nM | A (the ratio is >500) | > 1000 nM
C=CC(=O)N(C)c1ncc2cc(-c3c(Cl)c(OC)cc(OC)c3Cl)cnc2n1 [COMPOUND 8] | < 10 nM | E (the ratio is >10 and <50) | –
C=CC(=O)Nc1cccc(C)c1Nc1ncc2cc(-c3cc(C(N)=O)ccc3F)ccc2n1 [COMPOUND 9] | – | D (the ratio is ≥50 and <100) | > 1000 nM
C=CC(=O)Nc1cccc(C)c1Nc1ncc2cc(-c3cc(OC)cc(OC)c3)cnc2n1 [COMPOUND 10, N-(2-((6-(3,5-dimethoxyphenyl)pyrido[2,3-d]pyrimidin-2-yl)amino)-3-methylphenyl)acrylamide] | > 1000 nM | E (the ratio is >10 and <50) | > 1000 nM
C=CC(=O)Nc1ccccc1Nc1nccc(N2CCCC(NS(=O)(=O)CCC)C2)n1 (centres unmarked) [COMPOUND 11, N-(2-((4-(3-(propylsulfonamido)piperidin-1-yl)pyrimidin-2-yl)amino)phenyl)acrylamide] | – | – | > 1000 nM
C=CC(=O)N(C)c1ncc2cc(-c3c(Cl)c(OC)cc(OC)c3Cl)c(=O)n(C)c2n1 [COMPOUND 12] | < 10 nM | D (the ratio is ≥50 and <100) | –
C=CC(=O)Nc1cccc(C)c1Nc1ncc2cc(-c3c(Cl)cccc3Cl)ccc2n1 [COMPOUND 13] | – | D (the ratio is ≥50 and <100) | > 1000 nM
C=CC(=O)N(C)c1ncc2c(n1)N(C)C(=O)N(c1c(Cl)c(OC)cc(OC)c1Cl)C2 [COMPOUND 14] | – | F (the ratio of [IC50 for FGFR1]/[IC50 for FGFR4] is less than 10) | –
C=CC(=O)Nc1ccccc1Nc1cc2c(cn1)cc(-c1cc(OC)cc(OC)c1)c(=O)n2C [COMPOUND 15] | – | B (the ratio is ≥200 and <500) | > 1000 nM
C=CC(=O)Nc1ccccc1Nc1ncc2cc(-c3cc(OC)cc(OC)c3)c(=O)n(C)c2n1 [COMPOUND 16] | – | – | > 1000 nM
C=CC(=O)Nc1cccc(C)c1Nc1ncc2cc(-c3c(Cl)ccc(OC)c3F)ccc2n1 [COMPOUND 17A] | – | E (the ratio is >10 and <50) | > 1000 nM
C=CC(=O)Nc1cccc(Cl)c1Nc1ncc2cc(-c3cc(C(N)=O)ccc3C)ccc2n1 [COMPOUND 17] | – | B (the ratio is ≥200 and <500) | > 1000 nM
C=CC(=O)Nc1cccc(C)c1Nc1ncc2cc(-c3cc(OC)cc(OC)c3)c(=O)n(C)c2n1 [COMPOUND 19] | – | – | > 1000 nM

Compound | IC50 (wild type FGFR-4) | Ratio FGFR1/FGFR4 (wild type FGFR-4) | IC50 (wild type FGFR-1)
C=CC(=O)Nc1ccccc1-c1ccn2c(-c3cccc(NC(=O)NCC(F)(F)F)c3)cnc2c1 [COMPOUND 21, N-(2-(3-(3-(3-(2,2,2-trifluoroethyl)ureido)phenyl)imidazo[1,2-a]pyridin-7-yl)phenyl)acrylamide] | – | – | > 1000 nM
C=CC(=O)Nc1cccc(C)c1Nc1ncc2cc(-c3c(Cl)cccc3Cl)c(=O)n(C)c2n1 [COMPOUND 22] | – | B (the ratio is ≥200 and <500) | > 1000 nM
C=CC(=O)Nc1ccccc1Nc1ncc(C)c(N2CCN(C(=O)Nc3ccc(C#N)cc3)CC2)n1 [COMPOUND 23] | 100 to 1000 nM | A (the ratio is >500) | > 1000 nM
C=CC(=O)Nc1cccc(C)c1Nc1ncc(C#Cc2c(Cl)c(OC)cc(OC)c2Cl)cn1 [COMPOUND 24, N-(2-((5-((2,6-dichloro-3,5-dimethoxyphenyl)ethynyl)pyrimidin-2-yl)amino)-3-methylphenyl)acrylamide] | – | – | > 1000 nM
C=CC(=O)Nc1cccc(C)c1Oc1ncc2cc(-c3c(Cl)c(OC)cc(OC)c3Cl)ccc2n1 [COMPOUND 25A] | – | D (the ratio is ≥50 and <100) | > 1000 nM
C=CC(=O)Nc1cc(C)cc(C)c1Nc1ncc2cc(-c3c(Cl)c(OC)cc(OC)c3Cl)ccc2n1 [COMPOUND 28] | – | – | > 1000 nM
C=CC(=O)Nc1cc(F)cc(C)c1Nc1ncc2cc(-c3c(Cl)c(OC)cc(OC)c3Cl)ccc2n1 [COMPOUND 32] | < 10 nM | C (the ratio is ≥100 and <200) | > 1000 nM
C=CC(=O)Nc1cc(F)cc(F)c1Nc1ncc2cc(-c3c(Cl)c(OC)cc(OC)c3Cl)ccc2n1 [COMPOUND 36] | – | B (the ratio is ≥200 and <500) | > 1000 nM
C=CC(=O)Nc1ccc(F)c(F)c1Nc1ncc2cc(-c3c(Cl)c(OC)cc(OC)c3Cl)ccc2n1 [COMPOUND 37] | < 10 nM | C (the ratio is ≥100 and <200) | –
C=CC(=O)Nc1ccccc1Nc1ncc2cc(-c3c(Cl)c(OC)cc(OC)c3Cl)c(=O)n(C)c2c1C [COMPOUND 40, N-(2-((3-(2,6-dichloro-3,5-dimethoxyphenyl)-1,8-dimethyl-2-oxo-1,2-dihydro-1,6-naphthyridin-7-yl)amino)phenyl)acrylamide] | – | – | > 1000 nM
C=CC(=O)Nc1cccc(C)c1Nc1ncc2cc(-c3c(Cl)c(OC)cc(OC)c3Cl)c(OC)cc2n1 [COMPOUND 42, N-(2-((6-(2,6-dichloro-3,5-dimethoxyphenyl)-7-methoxyquinazolin-2-yl)amino)-3-methylphenyl)acrylamide] | < 10 nM | F (the ratio of [IC50 for FGFR1]/[IC50 for FGFR4] is less than 10) | –
C=CC(=O)Nc1cccc(F)c1Nc1ncc2cc(-c3c(Cl)c(OC)cc(OC)c3Cl)cc(OC)c2n1 [COMPOUND 47] | < 10 nM | B (the ratio is ≥200 and <500) | –
C=CC(=O)Nc1cccc(C)c1Nc1ncc2c(n1)N(C)C(=O)N(c1c(Cl)c(OC)cc(OC)c1Cl)C2 [COMPOUND 48, N-(2-((6-(2,6-dichloro-3,5-dimethoxyphenyl)-8-methyl-7-oxo-5,6,7,8-tetrahydropyrimido[4,5-d]pyrimidin-2-yl)amino)-3-methylphenyl)acrylamide] | < 10 nM | E (the ratio is >10 and <50) | –
C=CS(=O)(=O)Nc1cccc(C)c1Nc1ncc2cc(-c3c(Cl)c(OC)cc(OC)c3Cl)ccc2n1 [COMPOUND 49A] | – | E (the ratio is >10 and <50) | –
C=CC(=O)Nc1ccccc1Nc1ncc(Cl)c(N2CCN(C(=O)Nc3cccc(C(F)(F)F)c3)CC2)n1 [COMPOUND 50, 4-(2-((2-acrylamidophenyl)amino)-5-chloropyrimidin-4-yl)-N-(3-(trifluoromethyl)phenyl)piperazine-1-carboxamide] | – | – | > 1000 nM
C=CC(=O)Nc1cc(C(=O)NC2CCN(C)CC2)ccc1Nc1ncc(C)c(N2CCN(C(=O)Nc3ccc(C#N)cc3)CC2)n1 [COMPOUND 54, 4-(2-((2-acrylamido-4-((1-methylpiperidin-4-yl)carbamoyl)phenyl)amino)-5-methylpyrimidin-4-yl)-N-(4-cyanophenyl)piperazine-1-carboxamide] | – | – | > 1000 nM
